Results as given in patent US8664220B2, “Polycyclic compounds as lysophosphatidic acid receptor antagonists” (Amira Pharmaceuticals, Inc., priority 2009, dated 2014).

Biological target: T1, human LPA1 (Homo sapiens, UniProt Q92633)
T1 construct: the full-length cDNA for human LPA1 was obtained by PCR of the reverse transcription reaction; expressed in transfected cells
Assay: LPA1 calcium flux assay
Assay type: cell-based
Conditions: human LPA1 expressing CHO cells, stimulated with 10 nM LPA; read-out: HLPA1 Ca Flux IC50
Experimental: Establishment of a CHO Cell Line Stably Expressing Human LPA1
A 1.1 kb cDNA encoding the human LPA1 receptor was cloned from human lung.
Human lung RNA (Clontech Laboratories, Inc. USA) was reverse transcribed using the RETROscript kit (Ambion, Inc.) and the full-length cDNA for human LPA1 was obtained by PCR of the reverse transcription reaction. The nucleotide sequence of the cloned human LPA1 was determined by sequencing and confirmed to be identical to the published human LPA1 sequence (An et al. Biochem. Biophys. Res. Commun. 231:619 (1997). The cDNA was cloned into the pcDNA5/FRT expression plasmid and transfected in CHO cells using lipofectamine 2000 (Invitrogen Corp., USA). Clones stably expressing human LPA1 were selected using hygromycin and identified as cells that show Ca-influx in response to LPA.
LPA1 and LPA3 Calcium Flux Assays
Human LPA1 or LPA3 expressing CHO cells are seeded at 20,000-45,000 cells per well in a 96-well poly-D-lysine coated plate one or two days before the assay. Prior to the assay, the cells are washed once with PBS and then cultured in serum-free media overnight. On the day of the assay, a calcium indicator dye (Calcium 4, Molecular Devices) in assay buffer (HBSS with Ca^2+ and Mg^2+ and containing 20 mM Hepes and 0.3% fatty-acid free human serum albumin) is added to each well and incubation continued for 1 hour at 37° C. 10 μl of test compounds in 2.5% DMSO are added to the cells and incubation continued at room temperature for 30 minutes. Cells are the stimulated by the addition of 10 nM LPA and intracellular Ca^2+ measured using the Flexstation 3 (Molecular Devices). IC50s are determined using Graphpad prism analysis of drug titration curves.

T1 sequence (Q92633 whole entry): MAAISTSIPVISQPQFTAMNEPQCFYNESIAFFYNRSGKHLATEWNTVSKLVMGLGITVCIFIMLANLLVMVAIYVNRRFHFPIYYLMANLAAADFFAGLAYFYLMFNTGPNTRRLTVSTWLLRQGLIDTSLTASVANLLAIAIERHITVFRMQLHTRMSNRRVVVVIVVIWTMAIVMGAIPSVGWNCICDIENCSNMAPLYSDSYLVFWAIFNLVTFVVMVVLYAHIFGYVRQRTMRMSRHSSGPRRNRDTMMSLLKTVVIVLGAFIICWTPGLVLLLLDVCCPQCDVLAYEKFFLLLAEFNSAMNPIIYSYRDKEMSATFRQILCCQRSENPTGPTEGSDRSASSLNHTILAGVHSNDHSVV

`CCc1noc(-c2ccc(-c3ccc(C4(C(=O)O)CC4)cc3)cc2)c1Nc1cccc(-c2ccccc2)n1` [Compound 2-1, 1-{4′-[3-Ethyl-4-(6-phenyl-pyridin-2-ylamino)-isoxazol-5-yl]-biphenyl-4-yl}-cyclopropanecarboxylic acid] gave an IC50 of less than 300 nM.

Compound `Cc1noc(-c2ccc(-c3ccc(C4(C(=O)O)CC4)cc3)cc2)c1Nc1cccc(-c2cccc(C(N)=O)c2)n1` [Compound 1-144, 1-(4′-{4-[6-(3-Carbamoyl-phenyl)-pyridin-2-ylamino]-3-methyl-isoxazol-5-yl}-biphenyl-4-yl)-cyclopropanecarboxylic acid] has an IC50 of less than 300 nM.

`Cc1noc(-c2ccc(-c3ccc(C4(C(=O)O)CC4)cc3)cc2)c1Nc1cccc(Cc2cccc(F)c2)n1` [Compound 1-85, 1-(4′-{4-[6-(3-Fluoro-benzyl)-pyridin-2-ylamino]-3-methyl-isoxazol-5-yl}-biphenyl-4-yl)-cyclopropanecarboxylic acid] was tested, and the IC50 was less than 300 nM.

With `Cc1noc(-c2ccc(-c3ccc(C4(C(=O)O)CC4)cc3)cc2)c1Nc1cccc(-c2ccccc2Cl)n1` [Compound 1-109, 1-(4′-{4-[6-(2-Chloro-phenyl)-pyridin-2-ylamino]-3-methyl-isoxazol-5-yl}-biphenyl-4-yl)-cyclopropanecarboxylic acid] the IC50 was less than 300 nM.

`Cc1noc(-c2ccc(-c3ccc(C4(C(=O)O)CC4)cc3)cc2)c1Nc1cccc(-c2cccc(F)c2)n1` [Compound 1-93, 1-(4′-{4-[6-(3-Fluoro-phenyl)-pyridin-2-ylamino]-3-methyl-isoxazol-5-yl}-biphenyl-4-yl)-cyclopropanecarboxylic acid] showed an IC50 of less than 300 nM.

With `Cc1noc(-c2ccc(-c3ccc(C4(C(=O)O)CC4)cc3)cc2)c1Nc1cccc(Cc2ccc(F)cc2)n1` [Compound 1-86, 1-(4′-{4-[6-(4-Fluoro-benzyl)-pyridin-2-ylamino]-3-methyl-isoxazol-5-yl}-biphenyl-4-yl)-cyclopropanecarboxylic acid] the IC50 was less than 300 nM.

For `Cc1noc(-c2ccc(-c3ccc(C4(C(=O)O)CC4)cc3)cc2)c1Nc1cccc(-c2ccccc2CN(C)C)c1` [Compound 1-117, 1-{4′-[4-(2′-Dimethylaminomethyl-biphenyl-3-ylamino)-3-methyl-isoxazol-5-yl]-biphenyl-4-yl}-cyclopropanecarboxylic acid], the IC50 was less than 300 nM.

Compound `Cc1noc(-c2ccc(-c3ccc(C4(C(=O)O)CC4)cc3)cc2)c1Nc1cccc(C(=O)N2CCCC2)n1` [Compound 1-136, 1-(4′-{3-Methyl-4-[6-(pyrrolidine-1-carbonyl)-pyridin-2-ylamino]-isoxazol-5-yl}-biphenyl-4-yl)-cyclopropanecarboxylic acid] has an IC50 of less than 300 nM.

For `Cc1noc(-c2ccc(-c3ccc(C4(C(=O)O)CC4)cc3)cc2)c1C1OC1CCc1ccccc1` (stereo not drawn) [Compound 1-4, 1-{4′-[3-Methyl-4-(3-phenethyl-oxiranyl)-isoxazol-5-yl]-biphenyl-4-yl}-cyclopropanecarboxylic acid], the IC50 was less than 300 nM.

`Cc1noc(-c2ccc(-c3ccc(C4(C(=O)O)CC4)cc3)cc2)c1C(O)c1cn(Cc2ccccc2Cl)nn1` (stereo not drawn) [Compound 1-61, 1-[4′-(4-{[1-(2-Chloro-benzyl)-1H-[1,2,3]triazol-4-yl]-hydroxy-methyl}-3-methyl-isoxazol-5-yl)-biphenyl-4-yl]-cyclopropanecarboxylic acid] was tested, and the IC50 was less than 300 nM.

`Cc1noc(-c2ccc(-c3ccc(C4(C(=O)O)CC4)cc3)cc2)c1Nc1cncc(-c2ccccc2)n1` [Compound 1-78, 1-{4′-[3-Methyl-4-(6-phenyl-pyrazin-2-ylamino)-isoxazol-5-yl]-biphenyl-4-yl}-cyclopropanecarboxylic acid] showed an IC50 of less than 300 nM.

For `Cc1noc(-c2ccc(-c3ccc(C4(C(=O)O)CC4)cc3)cc2)c1Nc1cccc(-c2ccccc2)c1` [Compound 1-74, 1-{4′-[4-(Biphenyl-3-ylamino)-3-methyl-isoxazol-5-yl]-biphenyl-4-yl}-cyclopropanecarboxylic acid], the IC50 was less than 300 nM.
